Test system: SARS-CoV-2
Test: microbe, parasite or virus in culture
Conditions: Severe acute respiratory syndrome coronavirus 2, Vero C1008, 48 h

| SMILES | IC50 [µM] | IC50 (read-out: pIC50 (converted)) [µM] |
| --- | --- | --- |
| COCCOCCOCCOCCOC(=O)OC[n+]1ccc(N/C(=N/CCCCCCOc2ccc(Cl)cc2)NC#N)cc1 | > 20 | > 20 |
| C[C@H](N)Cc1cccc(O)c1 [GEPEFRINE] | > 20 | > 20 |
| CC(C)N(CCC(C(N)=O)(c1ccccc1)c1ccccc1)C(C)C | > 20 | > 20 |
| O=C(O)P(=O)(O)O [FOSCARNET] | > 20 | > 20 |
| CC12CCC(C(=O)N(CCCCN3CCN(c4ccccn4)CC3)C1=O)C2(C)C (stereo not given) | > 20 | > 20 |
| CNC(=O)c1nnc(NC(=O)C2CC2)cc1Nc1cccc(-c2ncn(C)n2)c1OC [CRAVACITINIB] | > 20 | > 20 |
| C=CC(=O)Nc1ccc2ncnc(Nc3ccc(OCc4cccc(F)c4)c(Cl)c3)c2c1 [ALLITINIB] | > 20 | > 20 |
| C[C@H]1O[C@H](OC[C@@H]2O[C@H](Oc3c(-c4ccc(O)c(O)c4)oc4cc(O)cc(O)c4c3=O)[C@@H](O)[C@H](O)[C@H]2O)[C@@H](O)[C@@H](O)[C@@H]1O | > 20 | > 20 |
| OC(CCCN1CCN(c2ncc(F)cn2)CC1)c1ccc(F)cc1 (stereo not given) [BMY-14802] | > 20 | > 20 |
| CO[C@H]1C[C@@H]2CC[C@@H](C)[C@@](O)(O2)C(=O)C(=O)N2CCCC[C@H]2C(=O)O[C@H]([C@H](C)C[C@@H]2CC[C@@H](OC(=O)C(C)(CO)CO)[C@H](OC)C2)CC(=O)[C@H](C)/C=C(\C)[C@@H](O)[C@@H](OC)C(=O)[C@H](C)C[C@H](C)/C=C/C=C/C=C/1C [TEMSIROLIMUS] | > 20 | > 20 |
| CS(=O)(=O)c1ccc([C@@H](O)[C@H](CF)NC(=O)C(Cl)Cl)cc1 | > 20 | > 20 |
| CCCCCCCOC(=O)NC1=NC(=O)N([C@H]2C[C@H](O)[C@@H](CO)O2)CN1 [KP-1461] | > 20 | > 20 |
| CCCCCCCC/C=C\CCCCCCCC(=O)O [OLEIC ACID] | > 20 | > 20 |
| Cc1c(N(C)CS(=O)(=O)O)c(=O)n(-c2ccccc2)n1C [METAMIZOLE] | > 20 | > 20 |
| NC1CCCCC1N (stereo not given) | > 20 | > 20 |
| CC1CN(C)CC2Cc3c(ccc4ccccc34)OC12O (stereo not given) [NARANOL] | > 20 | > 20 |
| Cc1cccc(Cl)c1NC(=O)/C=C1\SCC(=O)N1C [RALITOLINE] | > 20 | > 20 |
| N=C(N)NC(=N)NCCc1ccccc1 [PHENFORMIN] | > 20 | > 20 |
| NC(=O)CN1CCCC1=O | > 20 | > 20 |
| COC(=O)C(O)c1ccccc1 (stereo not given) [MANDELIC ACID, METHYL ESTER] | > 20 | > 20 |
| CCNC1C2CCC(C2)C1c1ccccc1 (stereo not given) [FENCAMFAMIN] | > 20 | > 20 |
| NC(=O)OCC(O)c1ccccc1 (stereo not given) [STYRAMATE] | > 20 | > 20 |
| N#CC1(c2ccc(NC(=O)c3cccnc3NCc3ccncc3)cc2)CCCC1 [RIVOCERANIB] | > 20 | > 20 |
| CNC(C)CC1CCCC1 (stereo not given) [CYCLOPENTAMINE] | > 20 | > 20 |
| O=C(CNC(=O)c1cccc(C(F)(F)F)c1)NC1CN([C@H]2CC[C@@](O)(c3cncs3)CC2)C1 [JNJ-41443532] | > 20 | > 20 |
| NC(=O)NO [HYDROXYUREA] | > 20 | > 20 |
| CC1CC[C@@]2(OC1)OC1CC3C4CC[C@H]5C[C@@H](O)CC[C@]5(C)C4C[C@@H](O)[C@]3(C)C1[C@@H]2C (stereo not given in full) | > 20 | > 20 |
| NC(=O)c1ccc[n+]([C@@H]2O[C@H](COP(=O)([O-])OP(=O)(O)OC[C@H]3O[C@@H](n4cnc5c(N)ncnc54)[C@H](O)[C@@H]3O)[C@@H](O)[C@H]2O)c1 [NADIDE] | > 20 | > 20 |
| O=c1cc(-c2ccccc2)oc2cccc(O)c12 [5-HYDROXYFLAVONE] | > 20 | > 20 |
| CCN(CC)CC(C)(C)COC(=O)c1ccc(N)cc1 | > 20 | > 20 |

— ChEMBL document CHEMBL4651402, “Screening of ~5500 FDA-approved drugs and clinical candidates for anti-SARS-CoV-2 activity” (2021)
